Test results published in publication PMC10739246 (ACS Bio & Med Chem Au, 2023).
Values after ≈ are worked out from the molar mass of the structure shown. Read-outs that look alike come from different tables or passages of the source. Residues, ends and D or L forms follow the SMILES beside them.

How the values were obtained:
[1] = test system: MreB in B. subtilis MW10; assay: MreB mobility assay; type: cell-based, Bacillus subtilis; details: B. subtilis MW10, 1 h of antibiotic exposure
Procedure: MreB is an actin homologue that forms filamentous structures along the lateral axis of the cell. It moves along the length of the cells in a spiraling pattern thereby driving lateral peptidoglycan synthesis.[36],[37] MreB mobility is sensitive to inhibition of peptidoglycan synthesis and so far, every cell wall synthesis inhibitor we tested abolished MreB movement (see Figure S70 for examples).
Expression of msfGFP-MreB was induced with 0.3% xylose. Pictures were taken after 1 h of antibiotic exposure. Two images of the same field of view were recorded 30 s apart and overlaid in ImageJ to visualize MreB mobility. A perfect overlap (yellow) indicates stalled MreB movement, while distinct red and green foci are indicative of MreB mobility. Scale bar 2 μm.
Fig. S70: MreB motility in B. subtilis MW10 after treatment with different cell wall synthesis inhibitors. Expression of GFP-MreB was induced with 0.3% xylose. Cells were treated with 1x […]
Two images of the same field of view were recorded 30 sec apart and overlaid in ImageJ to visualize MreB mobility. A perfect overlap (yellow) indicates stalled MreB movement while distinct red and green spots are indicative of MreB mobility. Scale bar 2 µm.

[2] = test system: cell wall biosynthesis in B. subtilis DSM402; assay: Summary of cell wall synthesis experiments; type: cell-based, Bacillus subtilis
[3] = test system: B. subtilis DSM402; assay: Peptidoglycan integrity assay (acetic acid/methanol fixation); details: 1x MIC; 30 min (cell wall inhibitors) or 60 min
[4] = test system: MurG in B. subtilis TNVS175; assay: MurG localization; type: cell-based, Bacillus subtilis; details: 1x MIC; 30 min (vancomycin) or 1 h;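 further: normal MurG forms small membrane spots and peptidoglycan inhibition gives large clusters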
[5] = test system: B. subtilis DSM402; details: Table 2; cells treated with 1x MIC
[6] = test system: B. subtilis DSM402; assay: Bacterial cytological profiling (BCP) in B. subtilis DSM402; type: cell-based, Bacillus subtilis
[7] = test system: S. aureus (ATCC 43300) MRSA; assay: MIC, microdilution, MRSA ATCC 43300; type: cell-based, Staphylococcus aureus; details: Staphylococcus aureus; norfloxacin-resistant strain
[8] = test system: M. tuberculosis (MC26020); assay: microbe, parasite or virus in culture; type: cell-based, Mycobacterium tuberculosis; details: Mycobacterium tuberculosis, read-out: MIC M. tuberculosis (MC26020)
[9] = test system: E. faecalis (ATCC 19433); assay: MIC, E. faecalis ATCC 19433; type: cell-based, Enterococcus faecalis; details: Enterococcus faecalis, ATCC19433
[10] = test system: S. aureus (CCUG1800T); assay: MIC, microdilution, S. aureus CCUG1800T; type: cell-based, Staphylococcus aureus
[11] = test system: P. aeruginosa (PAO1); assay: MIC, microdilution, P. aeruginosa PAO1; type: cell-based, Pseudomonas aeruginosa; details: Pseudomonas aeruginosa, PAO1
[12] = test system: norfloxacin-resistant clinical isolate of E. coli; assay: MIC, microdilution, norfloxacin-resistant clinical isolate of E. coli; type: cell-based, Escherichia coli; details: Escherichia coli, read-out: MIC E. coli (norfloxacin-resistant strain)
[13] = test system: E. coli (W3110); assay: MIC, microdilution, E. coli W3110; type: cell-based, Escherichia coli; details: Escherichia coli
[14] = test system: K. pneumoniae (ATCC 10031); assay: MIC, K. pneumoniae ATCC 10031; type: cell-based, Klebsiella pneumoniae; details: Klebsiella pneumoniae, ATCC10031
[15] = test system: E. coli
[16] = test system: E. coli; assay: microbe, parasite or virus in culture; details: Escherichia coli, read-out: MICC (MIC of the test compound alone)
[17] = interpretation of BCP in B. subtilis
[18] = Gram-negative strain, average of duplicate experiments, read-out: MIC E. coli (W3110)

## C[C@@H]1O[C@@H]1P(=O)(O)O [Fos, fosfomycin]
[1]
  MreB mobility: static with foci
[2]
  CWB inhibited?: yes
[3]
  PG integrity: compromised
[4]
  protein localization MurG: patchy/dispersed
[5]
  μM (concentration used, 1x MIC): 72.43 µM

## tunicamycin
[1]
  MreB mobility: static
[2]
  CWB inhibited?: yes
[3]
  PG integrity: compromised
[4]
  protein localization MurG: patchy
[5]
  μM (concentration used, 1x MIC): 19.58 µM

## CCCCCCCCCC(=O)N[C@@H](Cc1c[nH]c2ccccc12)C(=O)N[C@H](CC(N)=O)C(=O)N[C@@H](CC(=O)O)C(=O)N[C@@H]1C(=O)NCC(=O)N[C@@H](CCCN)C(=O)N[C@@H](CC(=O)O)C(=O)N[C@H](C)C(=O)N[C@@H](CC(=O)O)C(=O)NCC(=O)N[C@H](CO)C(=O)N[C@@H]([C@H](C)CC(=O)O)C(=O)N[C@@H](CC(=O)c2ccccc2N)C(=O)O[C@@H]1C [Dap, daptomycin, reference compound]
[6]; 1x MIC, 1 h, DNA condensation
  DAPI: regular
[6]; 1x MIC, 1 h, indicates cell lysis
  phase contrast: dark
[6]; 1x MIC, 1 h, membrane stain
  FM4-64: patchy
[6]; [17]
  gyrase inhibition: no
  membrane damage: yes

## CCn1cc(C(=O)O)c(=O)c2cc(F)c(N3CCN(C(=O)CNc4ccc(Br)cc4)CC3)cc21 [4b]
[7]
  MIC: > 964 µM
[8]
  MIC: 3.76 µM (≈ 2 µg/mL)
[9]
  MIC: 7.52 µM (≈ 4 µg/mL)
[10]; Staphylococcus aureus; Tab. S10, DNA gyrase side; strain not given, values equal S. aureus CCUG1800T of Table 1; read-out: MIC
  MIC: 1.88 µM (≈ 0.999 µg/mL)
[10]; Staphylococcus aureus; read-out: MIC S. aureus (CCUG1800T)
  MIC: 1.88 µM (≈ 0.999 µg/mL)
[11]
  MIC: 723 µM (≈ 384 µg/mL)
[12]
  MIC: > 964 µM
[13]; [18]
  MIC: 30.1 µM (≈ 16 µg/mL)
[14]
  MIC: > 964 µM

## CC(C)C[C@@H]1NC(=O)[C@@H](Cc2ccccc2)NC(=O)[C@H](CCN)NC(=O)[C@@H](NC(=O)[C@H](CCN)NC(=O)[C@@H](N)[C@@H](C)O)CCNC(=O)[C@H]([C@@H](C)O)NC(=O)[C@H](CCN)NC(=O)[C@H](CCN)NC1=O [PolBN, polymyxin B nonapeptide, reference compound] (HELM PEPTIDE1{T.[Dab].[Dab].[Dab].[dF].L.[Dab].[Dab].T}$PEPTIDE1,PEPTIDE1,3:R3-9:R2$$$V2.0; N-terminus assumed)
[15]
  FICI (fractional inhibitory concentration index): 0.0234
  MICC (MIC of the test compound alone): 128 µg/mL
[15]; MICCcheckerboard/MICC
  FICC (fractional inhibitory concentration of the test compound): 0.0078
[15]; combined with mupirocin
  MICCcheckerboard (MIC of the test compound in checkerboard assay): 1 µg/mL
[15]; mupirocin alone 64 µg/mL
  FICM (MICMcheckerboard/MICM): 0.0156
[15]; mupirocin combined with the compound of the line
  MICMcheckerboard (MIC of mupirocin in checkerboard assay): 1 µg/mL

## C/C(=C\C(=O)OCCCCCCCCC(=O)O)C[C@@H]1OC[C@H](C[C@@H]2O[C@H]2[C@@H](C)[C@H](C)O)[C@@H](O)[C@H]1O [Mup, mupirocin]
[16]
  MIC: 64 µg/mL

## CCn1cc(C(=O)O)c(=O)c2cc(F)c(N3CCN(C(=O)Cn4ccnc4)CC3)cc21 [8a]
[7]
  MIC: 299 µM (≈ 128 µg/mL)
[8]
  MIC: 2.33 µM (≈ 0.996 µg/mL)
[9]
  MIC: 14 µM (≈ 6 µg/mL)
[10]; Staphylococcus aureus, read-out: MIC S. aureus (CCUG1800T)
  MIC: 2.33 µM (≈ 0.996 µg/mL)
[11]
  MIC: 150 µM (≈ 64 µg/mL)
[12]
  MIC: 74.9 µM (≈ 32 µg/mL)
[13]; [18]
  MIC: 4.67 µM (≈ 2 µg/mL)
[13]; Tab. S10, topoisomerase IV side, strain not given, values equal E. coli W3110 of Table 1, read-out: MIC
  MIC: 4.67 µM (≈ 2 µg/mL)
[14]
  MIC: 9.35 µM (≈ 4 µg/mL)

## NNC(=O)c1ccncc1 [INH, isoniazid, reference compound]
[8]
  MIC: 1.82 µM (≈ 0.25 µg/mL)
